Reference: patent EP0624368A2, “Use of a composition for stimulating the synthesis of glutathione in the manufacture of a medicament for the treatment of acquired immune deficiency syndrome” (priority 1993, dated 1994)

Key:
MT-2 cells = experiment: Toxicity study (median lethal dose) in MT-2 cells; type: cell-based, human
Protocol: (§1) The median lethal doses (LD₅₀) of single treatment of Procysteine® were 5 mM with PBMC, 21 mM with H-9 cells, and 31 mM with MT-2 cells. […] Therefore, both 25 mM or 50 mM of Procysteine® could have caused significant cell mortality in the test cell systems. […] To avoid the misinterpretation of drug antiviral efficacy due to toxicity, an alternative design using lower concentrations of Procysteine® in the combination treatment was performed. […] The HIV p24 assays were performed for analysis.

H-9 cells = experiment: Toxicity study (median lethal dose) in H-9 cells; type: cell-based
Protocol: as §1

HIV-1 (strain IIIB) [1] = experiment: HIV p24 antigen assay in H-9 cells (single and combination treatment); type: cell-based; conditions: 80 IU/well HIV; for OD readings at 450 nm (HIV p24 antigen): H-9; for Calculated single treatment ED50: H-9 cells, p24 assay
Description: (§2) Three cell culture systems were used in this study: H-9 cells; MT-2 cells; and normal human peripheral blood mononuclear cells (PBMC). H-9 cells were obtained from Advanced Biotechnology Inc. (ABI). MT-2 cells were obtained from Dr. J. Armstrong of the University of Pittsburgh. MT-2 cells are HTLV-I transformed human T lymphocytes and continuously produce HTLV-I virions. PBMC were obtained from healthy donors, purified by Ficol-Hypaque, and stimulated with PHA mitogen before being used in the efficacy studies. The initial stock of HIV-1 (strain IIIB) used in this study was obtained from ABI and the working stocks were produced.
(§3) Cells were collected, put into tissue culture plates and incubated with different concentrations of drugs in RPMI 1640 tissue culture medium for 20 minutes prior to HIV challenge. Infection was carried out by inoculating 20-100 HIV infectious units (IU)/well inoculum without removing the drugs. The untreated cells exposed to HIV challenge served as positive controls. The normal untreated uninfected cells served as negative controls.
(§4) When evaluating the efficacies of drugs in H-9 cells and PBMC systems, only HIV p24 assays were used. To calculate the ED₅₀ values, a second order linear regression was applied on the logarithm of the tested doses of different drugs against the OD readings obtained from either MTT assays or HIV p24 assays.
(§5) Cells were collected, put into tissue culture plates and incubated with different combinations of drugs for 20 minutes prior to HIV infection in the combined treatment studies. Infection was carried out by inoculating 20-100 HIV IU/well inoculum without removing the drugs. The inocula were the same as the ones used in the single drug treatment to obtain the ED₅₀ values. Both MTT assays and HIV p24 antigen assays were used in evaluation of drug effects in MT-2 cells but only HIV p24 antigen assays were used for H-9 cells or PBMC.
(§6) Therefore, if the CI is less than 1, it indicates synergism among the tested drugs. Similarly, if the CI is equal to 1, the effects are additive, while a CI value greater than 1 is indicative of an antagonistic effect.

PBMC = experiment: Toxicity study (median lethal dose) in PBMC; type: cell-based, human
Protocol: as §1

HIV-1 (strain IIIB) [2] = experiment: MTT assay of protection against acute HIV infection in MT-2 cells; type: cell-based; conditions: 100 IU/well HIV; for OD readings at 540 nm (MTT assay): MT-2, Day 6 cultures; for Calculated single treatment ED50: MT-2 cells, MTT assay
Description: as §2, §3
(§7) Both the MTT assay and HIV p24 ELISA were used for evaluation of drug efficacies with MT-2 cells. The MTT assay is based upon the metabolic reduction of the MTT tetrazolium bromide dye in live cells. The OD readings (at 540 nm) obtained from the MTT assay are inversely correlated to the levels of cell mortality due to HIV infection or the cytotoxic effect of drugs. […] The HIV p24 antigen assay measures the level of HIV antigen present in the sample (i.e., culture supernatant).
as §4

HIV-1 (strain IIIB) [3] = experiment: HIV p24 antigen assay in PBMC (single and combination treatment); type: cell-based; conditions: 50 IU/well HIV
Description: as §2, §3, §4, §5, §6

H-9, MT-2, and PBMC = experiment: Toxicity study (median lethal dose), all three cell systems together; type: cell-based; conditions: range over the cell systems studied in this protocol
Protocol: as §1

HIV-1 (strain IIIB) [4] = experiment: HIV p24 antigen assay in MT-2 cells (single and combination treatment); type: cell-based; conditions: 20 IU/well HIV; for OD readings at 450 nm (HIV p24 antigen): MT-2; for Calculated single treatment ED50: MT-2 cells, p24 assay
Description: as §2, §3, §7, §4, §5, §6

SMILES: O=C1N[C@H](C(=O)O)CS1 [Procysteine®]
- LD50 value (MT-2 cells; as quoted in the discussion of ddI combination treatment): 31 to 32 mM
- median lethal doses (LD50) (MT-2 cells; single treatment): 31 mM
- LD50 value (MT-2 cells; with 1 µM of AZT): 36 mM
- median lethal doses (LD50) (H-9 cells; single treatment): 21 mM
- LD50 value (H-9 cells; with 1 µM of AZT): 30 mM
- OD readings at 450 nm (HIV p24 antigen) (HIV-1 (strain IIIB) [1]; 0.023 mM): 4.133
- OD readings at 450 nm (HIV p24 antigen) (HIV-1 (strain IIIB) [1]; 0.23 mM): 4.133
- OD readings at 450 nm (HIV p24 antigen) (HIV-1 (strain IIIB) [1]; 0.93 mM): 4.133
- OD readings at 450 nm (HIV p24 antigen) (HIV-1 (strain IIIB) [1]; 3.75 mM): 4.133
- OD readings at 450 nm (HIV p24 antigen) (HIV-1 (strain IIIB) [1]; 15 mM): 4.099
- OD readings at 450 nm (HIV p24 antigen) (HIV-1 (strain IIIB) [1]; 60 mM): 0.767
- Calculated single treatment ED50 (HIV-1 (strain IIIB) [1]): 653 mM
- median lethal doses (LD50) (PBMC; single treatment): 5 mM
- LD50 value (PBMC; with 1 µM of AZT): 8.3 mM
- OD readings at 540 nm (MTT assay) (HIV-1 (strain IIIB) [2]; 0.023 mM): 0.392
- OD readings at 540 nm (MTT assay) (HIV-1 (strain IIIB) [2]; 0.23 mM): 0.265
- OD readings at 540 nm (MTT assay) (HIV-1 (strain IIIB) [2]; 0.93 mM): 0.283
- OD readings at 540 nm (MTT assay) (HIV-1 (strain IIIB) [2]; 3.75 mM): 0.270
- OD readings at 540 nm (MTT assay) (HIV-1 (strain IIIB) [2]; 15 mM): 0.308
- OD readings at 540 nm (MTT assay) (HIV-1 (strain IIIB) [2]; 60 mM): 0.350
- Calculated single treatment ED50 (HIV-1 (strain IIIB) [2]): 2.3e+13 mM
- OD readings at 450 nm (HIV p24 antigen) (HIV-1 (strain IIIB) [3]; 0.023 mM): 3.703
- OD readings at 450 nm (HIV p24 antigen) (HIV-1 (strain IIIB) [3]; 0.23 mM): 3.057
- OD readings at 450 nm (HIV p24 antigen) (HIV-1 (strain IIIB) [3]; 0.93 mM): 2.951
- OD readings at 450 nm (HIV p24 antigen) (HIV-1 (strain IIIB) [3]; 3.75 mM): 3.640
- OD readings at 450 nm (HIV p24 antigen) (HIV-1 (strain IIIB) [3]; 15 mM): 3.284
- OD readings at 450 nm (HIV p24 antigen) (HIV-1 (strain IIIB) [3]; 60 mM): 1.141
- Calculated single treatment ED50 (HIV-1 (strain IIIB) [3]; p24 assay): 378 mM
- median lethal doses (LD50) (H-9, MT-2, and PBMC): 5 to 30 mM
- OD readings at 450 nm (HIV p24 antigen) (HIV-1 (strain IIIB) [4]; 0.023 mM): 3.269
- OD readings at 450 nm (HIV p24 antigen) (HIV-1 (strain IIIB) [4]; 0.23 mM): 3.712
- OD readings at 450 nm (HIV p24 antigen) (HIV-1 (strain IIIB) [4]; 0.93 mM): 3.762
- OD readings at 450 nm (HIV p24 antigen) (HIV-1 (strain IIIB) [4]; 3.75 mM): 3.649
- OD readings at 450 nm (HIV p24 antigen) (HIV-1 (strain IIIB) [4]; 15 mM): 2.825
- OD readings at 450 nm (HIV p24 antigen) (HIV-1 (strain IIIB) [4]; 60 mM): 1.675
- Calculated single treatment ED50 (HIV-1 (strain IIIB) [4]): 1613 mM

SMILES: O=c1[nH]cnc2c1ncn2[C@H]1CC[C@@H](CO)O1 [ddI]
- OD readings at 450 nm (HIV p24 antigen) (HIV-1 (strain IIIB) [1]; 0.25 μM): 3.984
- OD readings at 450 nm (HIV p24 antigen) (HIV-1 (strain IIIB) [1]; 1 μM): 1.542
- OD readings at 450 nm (HIV p24 antigen) (HIV-1 (strain IIIB) [1]; 4 μM): 0.772
- OD readings at 450 nm (HIV p24 antigen) (HIV-1 (strain IIIB) [1]; 16 μM): 0.716
- OD readings at 450 nm (HIV p24 antigen) (HIV-1 (strain IIIB) [1]; 64 μM): 0.329
- Calculated single treatment ED50 (HIV-1 (strain IIIB) [1]): 0.002424 mM
- OD readings at 540 nm (MTT assay) (HIV-1 (strain IIIB) [2]; 0.25 μM): 0.551
- OD readings at 540 nm (MTT assay) (HIV-1 (strain IIIB) [2]; 1 μM): 0.603
- OD readings at 540 nm (MTT assay) (HIV-1 (strain IIIB) [2]; 4 μM): 0.561
- OD readings at 540 nm (MTT assay) (HIV-1 (strain IIIB) [2]; 16 μM): 0.880
- OD readings at 540 nm (MTT assay) (HIV-1 (strain IIIB) [2]; 64 μM): 1.135
- Calculated single treatment ED50 (HIV-1 (strain IIIB) [2]): 0.002778 mM
- OD readings at 450 nm (HIV p24 antigen) (HIV-1 (strain IIIB) [3]; 0.25 μM): 2.730
- OD readings at 450 nm (HIV p24 antigen) (HIV-1 (strain IIIB) [3]; 1 μM): 2.658
- OD readings at 450 nm (HIV p24 antigen) (HIV-1 (strain IIIB) [3]; 4 μM): 0.672
- OD readings at 450 nm (HIV p24 antigen) (HIV-1 (strain IIIB) [3]; 16 μM): 0.212
- OD readings at 450 nm (HIV p24 antigen) (HIV-1 (strain IIIB) [3]; 64 μM): 0.098
- OD readings at 450 nm (HIV p24 antigen) (HIV-1 (strain IIIB) [4]; 0.25 μM): 3.351
- OD readings at 450 nm (HIV p24 antigen) (HIV-1 (strain IIIB) [4]; 1 μM): 3.025
- OD readings at 450 nm (HIV p24 antigen) (HIV-1 (strain IIIB) [4]; 4 μM): 0.710
- OD readings at 450 nm (HIV p24 antigen) (HIV-1 (strain IIIB) [4]; 16 μM): 1.167
- OD readings at 450 nm (HIV p24 antigen) (HIV-1 (strain IIIB) [4]; 64 μM): 1.131
- Calculated single treatment ED50 (HIV-1 (strain IIIB) [4]): 0.004069 mM
